Results published in paper PMC11855212 (2025).

Tests used:
[1] = test system: ACC2 G4 (DNA, G4) GGGGCGGGGCGGGGGCGGG; assay: SPR; settings: 100 mM K+; 50 mM Tris-HCl, pH 7.4, 25 °C
[2] = test system: ACC2 IM (DNA, i motif) TGACCCGCCCCCGCCCCGCCCCTGT; assay: SPR; settings: 100 mM K+; 20 mM MES, pH 5.5, 25 °C
[3] = test system: RB G4 (RB promoter G-quadruplex) (DNA, G4) CGGGGGGTTTTGGGCGGC; assay: CD melting; settings: 100 mM K+; 50 mM Tris-HCl, pH 7.4; 2 μM DNA; compound concentration not in material
[4] = test system: RB IM (RB promoter i-motif) (DNA, i motif) GCCGCCCAAAACCCCCCG; assay: TO displacement fluorescence; settings: 100 mM K+; BPES buffer, pH 5.5, 25 °C; 1 μM DNA; thiazole orange (TO) displaced
[5] = test system: RB promoter i-motif, 5'-FAM (DNA, i motif) GCCGCCCAAAACCCCCCG; assay: MST; settings: 100 mM K+; 20 mM MES, pH 5.5, 25 °C
[6] = test system: RB IM (RB promoter i-motif) (DNA, i motif) GCCGCCCAAAACCCCCCG; assay: CD melting; settings: 100 mM K+; BPES buffer (pH 5.5 per i-motif experiments); 2 μM DNA; compound concentration not in material
[7] = test system: c-jun G4 (DNA, G4) AAGGGGGGAGGGGGAGGGGGTT; assay: SPR; settings: 100 mM K+; 50 mM Tris-HCl, pH 7.4, 25 °C
[8] = test system: c-jun IM (DNA, i motif) TAACCCCCTCCCCCTCCCCCCTTTAAT; assay: SPR; settings: 100 mM K+; 20 mM MES, pH 5.5, 25 °C
[9] = test system: kras G4 (DNA, G4) AGGGCGGTGTGGGAAGAGGGAAGAGGGGGAGG; assay: SPR; settings: 100 mM K+; 50 mM Tris-HCl, pH 7.4, 25 °C
[10] = test system: RB G4 (RB promoter G-quadruplex) (DNA, G4) CGGGGGGTTTTGGGCGGC; assay: TO displacement fluorescence; settings: 100 mM K+; 50 mM Tris-HCl, pH 7.4, 25 °C; 1 μM DNA; thiazole orange (TO) displaced
[11] = test system: RB promoter G-quadruplex, 5'-FAM (DNA, G4) CGGGGGGTTTTGGGCGGC; assay: MST; settings: 100 mM K+; 50 mM Tris-HCl, pH 7.4, 25 °C
[12] = test system: RB IM (RB promoter i-motif) (DNA, i motif) GCCGCCCAAAACCCCCCG; assay: SPR; settings: 100 mM K+; 20 mM MES, pH 5.5, 25 °C
[13] = test system: RET G4 (DNA, G4) GGGGCGGGGCGGGGGGGGG; assay: SPR; settings: 100 mM K+; 50 mM Tris-HCl, pH 7.4, 25 °C
[14] = test system: hairpin (DNA, hairpin) CGCGCGCGTTTTCGCGCGCG; assay: SPR; settings: 25 °C; highest concentration not stated
[15] = test system: RB IM, 5'-biotin (SPR) (DNA, i motif) GCCGCCCAAAACCCCCCG; assay: SPR; settings: 100 mM K+, 20 mM MES, pH 5.5, 25 °C
[16] = test system: hairpin (DNA, hairpin) CGCGCGCGTTTTCGCGCGCG; assay: SPR; settings: buffer for hairpin not stated

Row | KD [1] | KD [2] | ΔTm [3] | DC50 [4] | KD [5] | ΔTm [6] | KD [7] | KD [8] | KD [9] | DC50 [10] | KD [11] | KD [12] | KD [13] | KD [14] | KD ([15]; unit not printed in Table S2, μM in text) | KD ([15]; Table S2 prints 9.24) | KD [16] | Compound
1 | 53.1 µM | 41.7 µM | −6.4 °C | 3.4 µM | 0.43 ± 0.24 µM | −10.7 °C | 43.9 µM | 27.0 µM | 32.5 µM | 2.7 µM | 2.50 ± 0.65 µM | 2.44 µM | 30.9 µM | > 50 µM |  |  |  | CN(CCCNc1c2ccccc2nc2ccccc12)CCCNc1c2ccccc2nc2ccccc12
2 |  |  |  |  |  |  |  |  |  |  |  | 36.7 µM |  |  | 36.7 µM |  |  | C[n+]1c(/C=C/c2c3ccccc3cc3ccccc23)ccc2ccccc21
3 |  |  | −9.9 °C |  | 18.06 ± 5.28 µM |  |  |  |  |  | 0.50 ± 0.27 µM |  |  |  |  | 13.6 µM | > 50 µM | Cc1ccc2nc3ccccc3c(NCCNCCNc3c4ccccc4nc4ccc(C)cc34)c2c1
